Active and inactive are the calls of the source. The calls are words filed in the database; no cut-off is given here.
What was measured:
Mus musculus [1] = experiment: Antinociceptive activity in sc dosed 129Sv6 mouse model assessed as peak effect measured at 15 mins by radiant heat tail flick assay; format: functional; conditions: 129Sv6, 0.25 h
Mus musculus [2] = experiment: Antinociceptive activity in po dosed C57BL/6J mouse model assessed as peak effect measured at 20 mins by radiant heat tail flick assay; format: functional
Mus musculus [3] = experiment: Antinociceptive activity in sc dosed C57BL/6J mouse model assessed as peak effect measured at 20 mins by radiant heat tail flick assay; format: functional
Mus musculus [4] = experiment: Antinociceptive activity in sc dosed 129Sv6 mouse model assessed as time required for peak effect at ED50 by radiant heat tail flick assay; format: functional
Mus musculus [5] = experiment: Antinociceptive activity in po dosed C57BL/6J mouse model assessed as time required for peak effect at ED50 by radiant heat tail flick assay; format: functional
[6] = Toxicity in C57BL/6J mouse assessed as effect on locomotion at 20 mg/kg, po measured after 3 hrs; format: organism-based; conditions: in vivo
[7] = Drug metabolism in 129Sv6 mouse plasma assessed as mitragynine pseudoindoxyl formation at 10 mg/kg, po measured after 15 mins by LC-MS/MS analysis; format: ADME, organism-based; conditions: in vivo, 0.25 h
[8] = Drug metabolism in 129Sv6 mouse brain assessed as mitragynine pseudoindoxyl formation at 10 mg/kg, po measured after 15 mins by LC-MS/MS analysis; format: ADME, organism-based; conditions: in vivo, 0.25 h
[9] = Drug concentration in C57BL/6J mouse brain at 30 mg/kg, po measured after 20 mins by LC-MS/MS analysis; format: ADME, organism-based; conditions: read-out: Ct
[10] = Drug concentration in 129Sv6 mouse brain at 10 mg/kg, po measured after 15 mins by LC-MS/MS analysis; format: ADME, organism-based; conditions: read-out: Ct
[11] = Drug concentration in C57BL/6J mouse brain at 30 mg/kg, sc measured after 20 mins by LC-MS/MS analysis; format: ADME, organism-based; conditions: read-out: Ct
[12] = Drug concentration in 129Sv6 mouse brain at 10 mg/kg, sc measured after 15 mins by LC-MS/MS analysis; format: ADME, organism-based; conditions: read-out: Ct
[13] = Stability in human liver microsomes assessed as half life at 1 uM incubated for 60 mins by LC-MS/MS analysis; format: ADME, Microsome; conditions: 1 h
[14] = Stability in C57BL/6J mouse liver microsomes assessed as half life at 1 uM incubated for 60 mins by LC-MS/MS analysis; format: ADME, Microsome; conditions: 1 h
[15] = Stability in 129Sv6 mouse liver microsomes assessed as half life at 1 uM incubated for 60 mins by LC-MS/MS analysis; format: ADME, Microsome; conditions: 1 h
Cytochrome P450 3A = Cytochrome P450 3A (Mus musculus, UniProt O09158+Q64464+Q64481+Q9JMA7); experiment: Metabolic stability in 129Sv6 mouse liver microsomes assessed as CYP3A-mediated decomposition by measuring half life at 1 uM incubated for 60 mins in presence of ketoconazole by LC-MS/MS analysis; format: ADME, Microsome; conditions: 1 h
[16] = Drug metabolism in human liver microsomes assessed as mitragynine pseudoindoxyl formation at 1 uM incubated for 60 mins by LC-MS/MS analysis; format: ADME, Microsome; conditions: 1 h
[17] = Drug metabolism in human liver microsomes assessed as mitragynine pseudoindoxyl formation at 1 uM incubated for 60 mins in presence of ketoconazole by LC-MS/MS analysis; format: ADME, Microsome; conditions: 1 h
[18] = Drug metabolism in 129Sv6 mouse liver microsomes assessed as mitragynine pseudoindoxyl formation at 1 uM incubated for 60 mins in presence of ketoconazole by LC-MS/MS analysis; format: ADME, Microsome; conditions: 1 h
[19] = Drug metabolism in C57BL/6J mouse liver microsomes assessed as mitragynine pseudoindoxyl formation at 1 uM incubated for 60 mins in presence of ketoconazole by LC-MS/MS analysis; format: ADME, Microsome; conditions: 1 h
[20] = Drug metabolism in human liver microsomes assessed as mitragynine pseudoindoxyl formation at 1 uM incubated for 60 mins in presence of NADPH by LC-MS/MS analysis; format: ADME, Microsome; conditions: 1 h
[21] = Drug metabolism in human S9 fraction assessed as mitragynine pseudoindoxyl formation at 1 uM incubated for 60 mins in presence of NADPH by LC-MS/MS analysis; format: ADME, subcellular; conditions: s9, 1 h
[22] = Drug metabolism in human liver microsomes assessed as compound depletion at 1 uM incubated for 60 mins in absence of NADPH by LC-MS/MS analysis; format: ADME, Microsome; conditions: 1 h
[23] = Drug metabolism in human S9 fraction assessed as mitragynine pseudoindoxyl formation at 1 uM incubated for 60 mins in absence of NADPH by LC-MS/MS analysis; format: ADME, subcellular; conditions: s9, 1 h
[24] = Drug metabolism in C57BL/6J mouse plasma assessed as 3-dehydromitragynine formation at ED80, po; format: ADME, cell-free
[25] = Drug metabolism in human liver microsomes assessed as 3-dehydromitragynine formation at 1 uM incubated for 60 mins by LC-MS/MS analysis; format: ADME, Microsome; conditions: 1 h
[26] = Drug metabolism in 129Sv6 mouse liver microsomes assessed as 3-dehydromitragynine formation at 1 uM incubated for 60 mins by LC-MS/MS analysis; format: ADME, Microsome; conditions: 1 h
[27] = Drug metabolism in human liver microsomes assessed as 3-dehydromitragynine formation at 1 uM incubated for 60 mins in presence of ketoconazole by LC-MS/MS analysis; format: ADME, Microsome; conditions: 1 h
[28] = Drug metabolism in human liver microsomes assessed as 3-dehydromitragynine formation at 1 uM incubated for 60 mins in presence of NADPH by LC-MS/MS analysis; format: ADME, Microsome; conditions: 1 h
[29] = Drug metabolism in human liver microsomes assessed as 3-dehydromitragynine formation at 1 uM incubated for 60 mins in absence of NADPH by LC-MS/MS analysis; format: ADME, Microsome; conditions: 1 h
[30] = Drug metabolism in human S9 fractions assessed as 3-dehydromitragynine formation at 1 uM incubated for 60 mins in presence of NADPH by LC-MS/MS analysis; format: ADME, subcellular, S9 fraction; conditions: s9, 1 h
[31] = Drug metabolism in human S9 fractions assessed as 3-dehydromitragynine formation at 1 uM incubated for 60 mins in absence of NADPH by LC-MS/MS analysis; format: ADME, subcellular, S9 fraction; conditions: s9, 1 h
Mus musculus [32] = experiment: Antinociceptive activity in MOR knock out C57BL/6J mouse at 45 mg/kg, po measured after 20 mins; format: functional, organism-based
Mus musculus [33] = experiment: Antinociceptive activity in DOR knock out C57BL/6J mouse at 45 mg/kg, po measured after 20 mins; format: functional, organism-based
Mus musculus [34] = experiment: Antinociceptive activity in MOR knock out 129Sv6 mouse at 10 mg/kg, po measured after 15 mins; format: functional, organism-based
Mus musculus [35] = experiment: Antinociceptive activity in KOR knock out 129Sv6 mouse at 10 mg/kg, po measured after 15 mins; format: functional, organism-based
[36] = Drug metabolism in C57BL/6J mouse brain assessed as mitragynine pseudoindoxyl formation at 30 mg/kg, po measured after 8 hrs by LC-MS/MS analysis; format: ADME, organism-based; conditions: in vivo
[37] = Drug metabolism in C57BL/6J mouse plasma assessed as mitragynine pseudoindoxyl formation at 30 mg/kg, po measured after 8 hrs by LC-MS/MS analysis; format: ADME, organism-based; conditions: in vivo
[38] = Drug concentration in C57BL/6J mouse brain at 30 mg/kg, po measured after 24 hrs by LC-MS/MS analysis; format: ADME, organism-based; conditions: in vivo, BLD = below limit of detection
[39] = Drug concentration in C57BL/6J mouse plasma at 30 mg/kg, po measured after 24 hrs by LC-MS/MS analysis; format: ADME, organism-based; conditions: in vivo, BLD = below limit of detection

**Q.** With `CC[C@@H]1CN2CCc3c([nH]c4cccc(OC)c34)[C@@H]2C[C@@H]1/C(=C\OC)C(=O)OC` as the compound, how does the ED50 (Mus musculus [1]) read?
**A.** 57.3 mg/kg

**Q.** And the ED50 (Mus musculus [2])?
**A.** 6.25 mg/kg

**Q.** What about the ED50 (Mus musculus [3]) of the same compound?
**A.** 25.9 mg/kg

**Q.** What about the Time (Mus musculus [4]) of the same compound?
**A.** 15 min

**Q.** What about the Time (Mus musculus [5]) of the same compound?
**A.** 15 min

**Q.** And the Activity [6]?
**A.** Non-Toxic

**Q.** What about the Drug metabolism [7] of the same compound?
**A.** 13 nM

**Q.** What about the Drug metabolism [8] of the same compound?
**A.** 180 nM

**Q.** And the concentration at 20 min [9]?
**A.** 6.63 µM

**Q.** And the concentration at 0.25 h [10]?
**A.** 12.2 µM

**Q.** What about the concentration at 20 min [11] of the same compound?
**A.** 9.74 µM

**Q.** What about the concentration at 0.25 h [12] of the same compound?
**A.** 30.1 µM

**Q.** What about the t1/2 [13] of the same compound?
**A.** 7.5 min

**Q.** And the t1/2 [14]?
**A.** 5.9 min

**Q.** What about the t1/2 [15] of the same compound?
**A.** 13.5 min

**Q.** What about the t1/2 (Cytochrome P450 3A) of the same compound?
**A.** 24.4 min

**Q.** And the Drug metabolism [16]?
**A.** Metabolite_Detected

**Q.** What about the Drug metabolism [17] of the same compound?
**A.** Metabolite_Notdetected

**Q.** And the Drug metabolism [18]?
**A.** Metabolite_Notdetected

**Q.** And the Drug metabolism [19]?
**A.** Metabolite_Notdetected

**Q.** What about the Drug metabolism [20] of the same compound?
**A.** Metabolite_Detected

**Q.** What about the Drug metabolism [21] of the same compound?
**A.** Metabolite_Detected

**Q.** What about the Drug metabolism [22] of the same compound?
**A.** Metabolite_Notdetected

**Q.** And the Drug metabolism [23]?
**A.** Metabolite_Notdetected

**Q.** What about the Drug metabolism [24] of the same compound?
**A.** 0.037 µM

**Q.** What about the Drug metabolism [25] of the same compound?
**A.** Metabolite_Detected

**Q.** And the Drug metabolism [26]?
**A.** Metabolite_Detected

**Q.** What about the Drug metabolism [27] of the same compound?
**A.** Metabolite_Detected

**Q.** What about the Drug metabolism [28] of the same compound?
**A.** Metabolite_Detected

**Q.** And the Drug metabolism [29]?
**A.** Metabolite_Detected

**Q.** And the Drug metabolism [30]?
**A.** Metabolite_Detected

**Q.** What about the Drug metabolism [31] of the same compound?
**A.** Metabolite_Detected

**Q.** And the Activity (Mus musculus [32])?
**A.** inactive

**Q.** What about the Activity (Mus musculus [33]) of the same compound?
**A.** Active

**Q.** What about the Activity (Mus musculus [34]) of the same compound?
**A.** inactive

**Q.** What about the Activity (Mus musculus [35]) of the same compound?
**A.** Active

**Q.** And the Drug metabolism [36]?
**A.** Metabolite_Notdetected

**Q.** And the Drug metabolism [37]?
**A.** Metabolite_Notdetected

**Q.** And the Ct [38]?
**A.** Bld

**Q.** And the Cp [39]?
**A.** Bld
